From patent US4668799A, “Anti-hepatitis and anti-cirrhotic 1,3-dithiol-2-ylidene derivatives, and pharmaceutical compositions therefor” (Banyu Pharmaceutical Co., Ltd., priority 1985, dated 1987)
Read-outs that look alike come from different tables or passages of the source.

Tests used:
[1] = system: liver (acute liver injury induced by carbon tetrachloride); experiment: Protective Effect on Acute Liver Injury Induced by Carbon Tetrachloride; type: in vivo, mice (ddY); details: mice; for inhibition in vivo at 50 mg/kg: Mus musculus, po, 50 mg/kg p.o. 6 h before CCl4, CCl4 alone = 0, normal = 100; for Liver Damage Index: 50 mg/kg p.o. 6 h before CCl4 0.05 ml/kg p.o., visual score 0 normal, 2 slightly, 4 distinctly, 6 remarkably injured, CCl4 alone 6.0
Experimental: A test compound was dissolved or suspended in olive oil and administered orally at a dose of 50 mg/kg to mice (ddY, mice, .male., 23±2 g, n=5). After 6 hours, carbon tetrachloride (0.05 ml/kg) was administered orally, 24 Hours after the administration of carbon tetrachloride, BSP (sodium sulfobromophthalene; 75 mg/kg) was administered intravenously. Thirty minutes later, the cardiac blood was collected, and GPT (glutamic-pyruvic transaminase) activity and the retention rate of BSP in the plasma were measured. Further, the liver injury immediately after the collection of the blood was visually observed and evaluated by the following score for liver damage index.

mice = experiment: Acute Toxicity Test; type: in vivo; details: oral, one week after administration
Experimental: (§1) A test compound was dissolved or suspended in olive oil and administered orally to mice (ddY mice, .male., 23±2 g, n=5). The acute toxicity value (LD50) was determined from the mortality one week after the administration.

Acute Toxicity Test = type: in vivo; details: mouse, in vivo; mice, oral, mortality one week after administration
Experimental: as §1

liver protein synthesis = experiment: Effect on Protein Synthesis in Liver; type: in vivo, rats (Wister strain); details: rats, 100 mg/kg p.o. for 3 days
Experimental: Compound 6 was dissolved in olive oil and orally administered successively for 3 days at a dose of 100 mg/kg to rats (Wister strain, .male., 180±10 g, 6 week-old, n=5). 24 Hours after the administration of the test compound was completed, the animals were sacrificed. The effect on the protein synthesis in the liver was evaluated by determining the liver weight and protein content.

[2] = system: fatty liver induced by carbon tetrachloride; experiment: Therapeutic Effect on Fatty Liver Induced by Carbon Tetrachloride; type: in vivo, rats (SD strain); details: rats, 50 mg/kg p.o. for 7 days
Experimental: Carbon tetrachloride (1 ml/kg) was subcutaneously administered to rats (SD strain, .male., 38 week-old, n=5) for 4 days. Upon expiration of 3 days from the administration of carbon tetrachloride, Compound 6 was orally given successively for 7 days at the dose of 50 mg/kg. On the 8th day, the animals were sacrificed by exsanguination. The therapeutic effect was evaluated by examining the content of triglyceride in the liver and the concentration of apoprotein B in the plasma.

liver damages = details: in vivo; cited from earlier work
[3] = BSP 75 mg/kg i.v., retention in plasma after 30 min, read-out: % Prophylaxis BSP
[4] = plasma GPT activity, read-out: % Prophylaxis p-GPT

SMILES | inhibition in vivo at 50 mg/kg [1, 3] | inhibition in vivo at 50 mg/kg [1, 4] | Liver Damage Index [1] | toxicity (in words) (mice) | LD50 at 168 h (Acute Toxicity Test) | further results
CC(=O)C(C(C)=O)=C1SC=CS1 [Compound 1, 3-(1,3-dithiol-2-ylidene)-2,4-pentanedione] | 80% | 25% | 5.0 | – | – | –
CCC(=O)C(C(C)=O)=C1SC=CS1 [Compound 2, 3-(1,3-dithiol-2-ylidene)-2,4-hexanedione] | 85% | 72% | 1.4 | – | – | –
CCOCC(=O)C(C(C)=O)=C1SC=CS1 [Compound 3, 3-(1,3-dithiol-2-ylidene)-1-ethoxy-2,4-pentanedione] | 102% | 97% | 2.2 | – | – | –
CC(C)CC(=O)C(C(=O)CC(C)C)=C1SC=CS1 [Compound 4, 5-(1,3-dithiol-2-ylidene)-2,8-dimethyl-4,6-nonanedione] | 108% | 100% | 1.0 | low toxicity | ≥ 2000 mg/kg | –
CC(=O)C(C(=O)C1CCCCC1)=C1SC=CS1 [Compound 5, 2-(1,3-dithiol-2-ylidene)-1-cyclohexyl-1,3-butanedione] | 96% | 89% | 2.8 | low toxicity | ≥ 2000 mg/kg | –
CC(=O)C(C(=O)c1ccccc1)=C1SC=CS1 [Compound 6, 2-(1,3-dithiol-2-ylidene)-1-phenyl-1,3-butanedione] | – | – | – | low toxicity | ≥ 2000 mg/kg | effect for stimulating the protein metabolic function of the liver (in words) (liver protein synthesis): substantial effect for stimulating the protein metabolic function of the liver; effect for curing the fatty liver (in words) [2]: significant effect for curing the fatty liver
CCCC(=O)C(C(=O)c1ccccc1)=C1SC=CS1 [Compound 7, 2-(1,3-dithiol-2-ylidene)-1-phenyl-1,3-hexanedione] | – | – | – | low toxicity | ≥ 2000 mg/kg | –
CC(C)CC(=O)C(C(=O)c1ccccc1)=C1SC=CS1 [Compound 8, 2-(1,3-dithiol-2-ylidene)-5-methyl-1-phenyl-1,3-hexanedione] | – | – | – | low toxicity | ≥ 2000 mg/kg | –
CCCCCCCCCCCCCCCC(=O)C(C(=O)c1ccccc1)=C1SC=CS1 [Compound 10, 2-(1,3-dithiol-2-ylidene)-1-phenyl-1,3-octadecanedione] | 78% | 42% | 2.0 | – | – | –
CC(=O)C(C(=O)c1ccc(C)cc1)=C1SC=CS1 [Compound 12, 2-(1,3-dithiol-2-ylidene)-1-(4-methylphenyl)-1,3-butanedione] | – | – | – | low toxicity | ≥ 2000 mg/kg | –
COc1ccc(C(=O)C(C(C)=O)=C2SC=CS2)cc1 [Compound 17, 2-(1,3-dithiol-2-ylidene)-1-(4-methoxyphenyl)-1,3-butanedione] | – | – | – | low toxicity | ≥ 2000 mg/kg | –
CC(=O)C(C(=O)c1cccc2ccccc12)=C1SC=CS1 [Compound 27, 2-(1,3-dithiol-2-ylidene)-1-(1-naphthyl)-1,3-butanedione] | – | – | – | low toxicity | ≥ 2000 mg/kg | –
CC(=O)C(C(=O)c1ccc2ccccc2c1)=C1SC=CS1 [Compound 28, 2-(1,3-dithiol-2-ylidene)-1-(2-naphthyl)-1,3-butanedione] | – | – | – | low toxicity | ≥ 2000 mg/kg | –
O=C1CCCC(=O)C1=C1SC=CS1 [Compound 41, 2-(1,3-dithiol-2-ylidene)-1,3-cyclohexanedione] | 66% | 29% | 6.0 | – | – | –
CC1CCC(=O)C(=C2SC=CS2)C1=O (centres unmarked) [Compound 42, 2-(1,3-dithiol-2-ylidene)-4-methyl-1,3-cyclohexanedione] | 60% | 29% | 6.0 | – | – | –
CC(C)C1CCC(=O)C(=C2SC=CS2)C1=O (centres unmarked) [Compound 43, 2-(1,3-dithiol-2-ylidene)-4-isopropyl-1,3-cyclohexanedione] | 95% | 67% | 5.6 | – | – | –
CC1(C)CC(=O)C(=C2SC=CS2)C(=O)C1 [Compound 44, 2-(1,3-dithiol-2-ylidene)-5,5-dimethyl-1,3-cyclohexanedione] | 111% | 95% | 1.2 | – | – | –
CC(=O)C(C(=O)c1ccc(O)cc1)=C1SC=CS1 [Compound 45, 2-(1,3-dithiol-2-ylidene)-1-(4-hydroxyphenyl)-1,3-butanedione] | – | – | – | low toxicity | ≥ 2000 mg/kg | –
CC(C)OC(=O)C(C(=O)OC(C)C)=C1SC=CS1 [Malotilate] | – | – | – | – | – | effectiveness for the treatment of liver damages (in words) (liver damages): effective for the treatment of liver damages
